{"source": "patent US9629861B2", "about": "“Compositions and methods for treating bacterial infections using ceftaroline” (Forest Laboratories Holdings Limited, priority 2009, dated 2017)", "key": {"[1]": {"biological_target": "CYP1A2 (Homo sapiens, UniProt P05177)", "sequence (P05177 whole entry)": "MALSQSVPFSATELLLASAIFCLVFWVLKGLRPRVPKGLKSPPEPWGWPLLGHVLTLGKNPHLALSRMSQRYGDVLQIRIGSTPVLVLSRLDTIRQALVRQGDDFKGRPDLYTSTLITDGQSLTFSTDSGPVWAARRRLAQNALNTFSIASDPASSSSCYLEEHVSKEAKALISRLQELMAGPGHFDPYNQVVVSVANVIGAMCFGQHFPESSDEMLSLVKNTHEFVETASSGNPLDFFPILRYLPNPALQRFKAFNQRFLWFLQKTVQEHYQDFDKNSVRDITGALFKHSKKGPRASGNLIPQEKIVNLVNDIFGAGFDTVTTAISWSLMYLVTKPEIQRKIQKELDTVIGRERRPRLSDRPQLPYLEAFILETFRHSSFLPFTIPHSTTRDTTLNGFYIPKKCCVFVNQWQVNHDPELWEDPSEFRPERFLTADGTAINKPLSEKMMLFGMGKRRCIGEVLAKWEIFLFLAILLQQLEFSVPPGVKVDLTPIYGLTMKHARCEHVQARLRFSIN", "assay_type": "in vitro ADME", "settings": "human liver microsomes"}, "[2]": {"biological_target": "T1, CYP2A6 (Homo sapiens, UniProt P11509)", "T1 construct": "In vitro studies in human liver microsomes; from tissue; host or cells: human liver microsomes", "T1 sequence (P11509 whole entry)": "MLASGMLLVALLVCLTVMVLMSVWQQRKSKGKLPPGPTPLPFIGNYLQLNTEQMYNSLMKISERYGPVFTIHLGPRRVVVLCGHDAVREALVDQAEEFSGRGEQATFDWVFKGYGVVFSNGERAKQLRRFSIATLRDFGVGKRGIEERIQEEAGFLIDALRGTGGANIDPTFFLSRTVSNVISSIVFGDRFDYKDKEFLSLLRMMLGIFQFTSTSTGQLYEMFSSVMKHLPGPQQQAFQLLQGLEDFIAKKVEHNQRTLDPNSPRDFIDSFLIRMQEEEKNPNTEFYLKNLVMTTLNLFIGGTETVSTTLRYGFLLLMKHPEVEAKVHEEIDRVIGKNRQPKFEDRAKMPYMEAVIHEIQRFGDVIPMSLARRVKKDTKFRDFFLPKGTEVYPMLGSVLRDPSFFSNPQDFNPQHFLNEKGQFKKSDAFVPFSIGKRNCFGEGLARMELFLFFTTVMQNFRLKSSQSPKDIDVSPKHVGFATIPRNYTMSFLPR", "assay": "CYP inhibition in human liver microsomes", "assay_type": "in vitro ADME"}, "[3]": {"biological_target": "T2, CYP2B6 (Homo sapiens, UniProt P20813)", "T2 construct": "In vitro studies in human liver microsomes; from tissue; host or cells: human liver microsomes", "T2 sequence (P20813 whole entry)": "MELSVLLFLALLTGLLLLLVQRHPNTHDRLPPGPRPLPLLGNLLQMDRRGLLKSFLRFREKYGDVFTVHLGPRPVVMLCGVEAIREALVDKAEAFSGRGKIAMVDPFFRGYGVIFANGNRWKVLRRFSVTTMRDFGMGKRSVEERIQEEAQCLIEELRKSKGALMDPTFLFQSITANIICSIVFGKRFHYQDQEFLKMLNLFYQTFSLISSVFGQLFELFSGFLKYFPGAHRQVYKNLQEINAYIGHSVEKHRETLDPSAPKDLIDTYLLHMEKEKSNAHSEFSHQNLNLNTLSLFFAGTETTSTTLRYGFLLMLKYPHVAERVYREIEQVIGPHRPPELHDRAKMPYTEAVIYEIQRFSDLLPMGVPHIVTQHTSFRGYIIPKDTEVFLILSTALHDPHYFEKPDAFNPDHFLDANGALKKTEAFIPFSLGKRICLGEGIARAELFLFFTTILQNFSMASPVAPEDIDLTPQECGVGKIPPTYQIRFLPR", "assay": "CYP inhibition in human liver microsomes", "assay_type": "in vitro ADME"}, "[4]": {"biological_target": "T3, CYP2C9 (Homo sapiens, UniProt P11712)", "T3 construct": "In vitro studies in human liver microsomes; from tissue; host or cells: human liver microsomes", "T3 sequence (P11712 whole entry)": "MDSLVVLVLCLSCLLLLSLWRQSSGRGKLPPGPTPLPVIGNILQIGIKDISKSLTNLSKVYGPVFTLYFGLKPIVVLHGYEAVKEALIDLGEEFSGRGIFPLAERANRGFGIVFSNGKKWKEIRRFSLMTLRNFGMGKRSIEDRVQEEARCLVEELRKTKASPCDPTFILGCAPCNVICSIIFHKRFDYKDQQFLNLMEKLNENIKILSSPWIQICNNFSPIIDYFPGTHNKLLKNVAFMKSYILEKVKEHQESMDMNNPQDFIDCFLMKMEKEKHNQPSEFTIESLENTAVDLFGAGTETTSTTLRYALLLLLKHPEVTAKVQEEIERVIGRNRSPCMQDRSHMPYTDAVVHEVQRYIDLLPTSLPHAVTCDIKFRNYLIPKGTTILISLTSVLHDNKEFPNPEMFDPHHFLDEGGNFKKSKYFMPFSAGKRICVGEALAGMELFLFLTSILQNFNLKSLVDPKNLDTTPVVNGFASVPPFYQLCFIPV", "assay": "CYP inhibition in human liver microsomes", "assay_type": "in vitro ADME"}, "[5]": {"biological_target": "T4, CYP2D6 (Homo sapiens, UniProt P10635)", "T4 construct": "In vitro studies in human liver microsomes; from tissue; host or cells: human liver microsomes", "T4 sequence (P10635 whole entry)": "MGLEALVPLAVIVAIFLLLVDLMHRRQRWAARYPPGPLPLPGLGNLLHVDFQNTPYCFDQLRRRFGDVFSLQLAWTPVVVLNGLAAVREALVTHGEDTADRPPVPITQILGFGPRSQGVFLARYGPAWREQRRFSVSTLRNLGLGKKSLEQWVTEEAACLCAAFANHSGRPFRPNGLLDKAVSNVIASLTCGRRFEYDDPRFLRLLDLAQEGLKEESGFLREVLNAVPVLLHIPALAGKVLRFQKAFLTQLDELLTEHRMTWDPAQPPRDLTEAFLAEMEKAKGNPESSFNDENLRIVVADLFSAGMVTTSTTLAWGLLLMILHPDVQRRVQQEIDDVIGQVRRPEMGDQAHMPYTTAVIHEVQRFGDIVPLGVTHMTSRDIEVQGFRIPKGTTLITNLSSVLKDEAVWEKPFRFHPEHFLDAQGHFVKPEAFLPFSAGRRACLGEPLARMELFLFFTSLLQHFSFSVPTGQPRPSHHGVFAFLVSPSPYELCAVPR", "assay": "CYP inhibition in human liver microsomes", "assay_type": "in vitro ADME"}, "[6]": {"biological_target": "T5, CYP2E1 (Homo sapiens, UniProt P05181)", "T5 construct": "In vitro studies in human liver microsomes; from tissue; host or cells: human liver microsomes", "T5 sequence (P05181 whole entry)": "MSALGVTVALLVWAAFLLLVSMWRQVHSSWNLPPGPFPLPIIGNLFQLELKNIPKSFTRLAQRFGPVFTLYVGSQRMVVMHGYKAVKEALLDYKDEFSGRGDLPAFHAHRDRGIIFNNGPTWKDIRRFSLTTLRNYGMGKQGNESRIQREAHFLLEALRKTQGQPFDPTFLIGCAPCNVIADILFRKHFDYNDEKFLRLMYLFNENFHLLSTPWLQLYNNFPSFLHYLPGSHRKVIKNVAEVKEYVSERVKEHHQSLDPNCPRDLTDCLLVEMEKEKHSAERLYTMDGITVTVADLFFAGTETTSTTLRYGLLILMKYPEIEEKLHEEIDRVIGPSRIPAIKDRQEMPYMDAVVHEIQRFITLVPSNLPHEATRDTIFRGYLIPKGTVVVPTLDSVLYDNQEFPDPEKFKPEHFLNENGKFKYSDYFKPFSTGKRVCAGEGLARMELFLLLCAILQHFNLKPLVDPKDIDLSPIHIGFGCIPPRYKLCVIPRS", "assay": "CYP inhibition in human liver microsomes", "assay_type": "in vitro ADME"}, "[7]": {"system": "CYP2C9", "assay": "CYP induction in human hepatocytes", "assay_type": "in vitro ADME"}, "[8]": {"system": "complicated skin and skin structure infections (cSSSI)", "assay": "Two Phase 3 studies in cSSSI, integrated", "assay_type": "in vivo, human", "settings": "co-primary CE and MITT populations", "protocol": "A total of 1396 adults with clinically documented complicated skin and skin structure infections (cSSSI) were enrolled in two randomized, multi-center, multinational, double-blind, studies comparing 600 mg ceftaroline fosamil administered intravenously over 1 hour every 12 hours to vancomycin plus aztreonam [1 g vancomycin administered intravenously over 1 hour followed by 1 g aztreonam administered intravenously over 1 hour every 12 hours]. Patients with cSSSI (deep/extensive cellulitis, a major abscess, a wound infection [surgical or traumatic], infected insect bites, burns or ulcers, lower extremity infection in patients with diabetes mellitus or peripheral vascular disease), were enrolled in the studies. Treatment duration was 5 to 14 days. A switch to oral therapy was not allowed. The Modified Intent-to-Treat (MITT) population included all patients who received any amount of study drug according to their randomized treatment group.\nThe primary efficacy endpoint was clinical response at the Test of Cure (TOC) visit in the co-primary CE and MITT populations (Table 2). […] In a subgroup analysis (CE population), the comparative clinical cure rates between the ceftaroline group and the vancomycin plus aztreonam group were not affected by age, gender, race, ethnicity, or weight."}, "[9]": {"system": "MDRSP", "assay": "Example 4 CAP study, outcome by baseline pathogen", "assay_type": "in vivo, Streptococcus pneumoniae", "from_the_text": "(§1) Per-pathogen clinical cure rate and favorable microbiological outcome rate at TOC in the mMITTE and ME Populations;"}, "[10]": {"system": "S. pneumoniae", "assay": "Example 4 CAP study, outcome by baseline pathogen", "assay_type": "in vivo, Streptococcus pneumoniae", "from_the_text": "as §1"}, "[11]": {"system": "MDRSP", "assay": "Example 5 CAP study, outcome by baseline pathogen", "assay_type": "in vivo, Streptococcus pneumoniae", "from_the_text": "as §1"}, "[12]": {"system": "S. pneumoniae", "assay": "Example 5 CAP study, outcome by baseline pathogen", "assay_type": "in vivo, Streptococcus pneumoniae", "from_the_text": "as §1"}, "[13]": {"system": "S. aureus", "assay": "Example 5 CAP study, outcome by baseline pathogen", "assay_type": "in vivo, Staphylococcus aureus", "from_the_text": "as §1"}, "[14]": {"settings": "human, in vivo"}, "[15]": {"settings": "human, in vivo", "remark": "listed apart in the source"}, "[16]": {"system": "CYP2C8", "settings": "human hepatocytes"}, "[17]": {"system": "CYP2C19", "settings": "human hepatocytes"}, "[18]": {"settings": "Example 4", "procedure": "The 600-mg dose of ceftaroline fosamil infused over 60 minutes was split into two infusions in order to maintain the blind. For subjects with moderate renal impairment (30 ml/min<CrCl≦50 ml/min), as estimated by the Cockroft-Gault formula, unblinded pharmacy staff or unblinded study staff could adjust the dose of ceftaroline fosamil to two consecutive 200 mg infusions and readjust dose to two 300 mg infusions when renal function improved (CrCl>50 mL/min). The duration of treatment was between 5 to 7 days.\n(§2) All subjects who received any amount of study drug were included in the safety analysis. Safety measures included monitoring for adverse events (AE) up to TOC and serious adverse events (SAE) through LFU; recording vital signs, physical examination, electrocardiogram (ECG), and clinical laboratory findings (clinical chemistry, hematology, and urinalysis), at prespecified times throughout the study."}, "[19]": {"settings": "Example 5", "procedure": "The 600-mg dose of ceftaroline fosamil infused over 60 minutes was split into two infusions in order to maintain the blind. For subjects with moderate renal impairment (30 mL/min<CrCl≦50 mL/min), as estimated by the Cockroft-Gault formula, unblinded pharmacy staff or unblinded study staff could adjust the dose of ceftaroline fosamil to two consecutive 200 mg infusions and readjust dose to two 300 mg infusions when renal function improved (CrCl>50 mL/min). The duration of treatment was between 5 to 7 days.\nas §2"}, "[20]": {"settings": "Safety population, listed as ceftaroline"}}, "note": "Where two headings read alike, the source gives them in different places."}
{"smiles": "CCO/N=C(\\C(=O)N[C@@H]1C(=O)N2C(C(=O)[O-])=C(Sc3nc(-c4cc[n+](C)cc4)cs3)CS[C@H]12)c1nsc(N)n1", "note": "[Ceftaroline]", "values": [{"measurement": "inhibition of CYP1A2", "setting": "[1]", "value": "neither ceftaroline fosamil nor ceftaroline inhibits"}, {"measurement": "inhibition of CYP2A6", "setting": "[2]", "value": "neither ceftaroline fosamil nor ceftaroline inhibits"}, {"measurement": "inhibition of CYP2B6", "setting": "[3]", "value": "neither ceftaroline fosamil nor ceftaroline inhibits"}, {"measurement": "inhibition of CYP2C9", "setting": "[4]", "value": "neither ceftaroline fosamil nor ceftaroline inhibits"}, {"measurement": "inhibition of CYP2D6", "setting": "[5]", "value": "neither ceftaroline fosamil nor ceftaroline inhibits"}, {"measurement": "inhibition of CYP2E1", "setting": "[6]", "value": "neither ceftaroline fosamil nor ceftaroline inhibits"}, {"measurement": "induction of CYP2C9", "setting": "[7]", "value": "not inducers"}, {"measurement": "clinical response at TOC compared with vancomycin plus aztreonam", "setting": "[8]", "value": "non-inferior"}, {"measurement": "Favorable Microbiological Outcome at TOC by Baseline Pathogen", "setting": "[9]; ME", "value": "2/2 (100.0) %"}, {"measurement": "Clinical Cure Rate at the TOC Visit by Baseline Pathogen", "setting": "[9]; ME population", "value": "2/2 (100.0) %"}, {"measurement": "Favorable Microbiological Outcome at TOC by Baseline Pathogen", "setting": "[10]; ME", "value": "35/39 (89.7) %"}, {"measurement": "Clinical Cure Rate at the TOC Visit by Baseline Pathogen", "setting": "[10]; ME population", "value": "33/39 (84.6) %"}, {"measurement": "Favorable Microbiological Outcome at TOC by Baseline Pathogen", "setting": "[11]; ME", "value": "2/2 (100.0) %"}, {"measurement": "Clinical Cure Rate at the TOC Visit by Baseline Pathogen", "setting": "[11]; ME population", "value": "2/2 (100.0) %"}, {"measurement": "Favorable Microbiological Outcome at TOC by Baseline Pathogen", "setting": "[12]; ME", "value": "21/24 (87.5) %"}, {"measurement": "Clinical Cure Rate at the TOC Visit by Baseline Pathogen", "setting": "[12]; ME population", "value": "21/24 (87.5) %"}, {"measurement": "Favorable Microbiological Outcome at TOC by Baseline Pathogen", "setting": "[13]; ME", "value": "8/10 (80.0) %"}, {"measurement": "Clinical Cure Rate at the TOC Visit by Baseline Pathogen", "setting": "[13]; ME population", "value": "8/10 (80.0) %"}, {"measurement": "AUC higher in female than in male subjects", "setting": "[14]", "value": "6-15%"}, {"measurement": "Cmax higher in female than in male subjects", "setting": "[14]", "value": "17-22%"}, {"measurement": "exposure (Cmax and AUC) with concomitant inhibitors, inducers and substrates of cytochrome P450", "setting": "[15]", "value": "did not identify any clinically relevant increases"}, {"measurement": "induction of CYP2C8", "setting": "[16]", "value": "not inducers"}, {"measurement": "induction of CYP2C19", "setting": "[17]", "value": "not inducers"}, {"measurement": "TEAEs leading to premature discontinuation from study drug administration", "setting": "[18]", "value": 0.6, "unit": "%"}, {"measurement": "any study-drug-related TEAEs, subjects", "setting": "[18]", "value": 12.4, "unit": "%"}, {"measurement": "study-drug-related TEAE: headache", "setting": "[18]", "value": 0.6, "unit": "%"}, {"measurement": "Early withdrawal from study, reason Adverse Event", "setting": "[18]; MITTE population", "value": "8 (2.8) %"}, {"measurement": "Any AE (TEAE), subjects", "setting": "[18]; Safety population", "value": "169 (53.7) %"}, {"measurement": "COPD, subjects", "setting": "[18]; Safety population", "value": "8 (2.5) %"}, {"measurement": "Diarrhea, subjects", "setting": "[18]; Safety population", "value": "12 (3.8) %"}, {"measurement": "Headache, subjects", "setting": "[18]; Safety population", "value": "11 (3.5) %"}, {"measurement": "Hypertension, subjects", "setting": "[18]; Safety population", "value": "8 (2.5) %"}, {"measurement": "Hypokalemia, subjects", "setting": "[18]; Safety population", "value": "10 (3.2) %"}, {"measurement": "Insomnia, subjects", "setting": "[18]; Safety population", "value": "10 (3.2) %"}, {"measurement": "Nausea, subjects", "setting": "[18]; Safety population", "value": "6 ( 1.9) %"}, {"measurement": "Phlebitis, subjects", "setting": "[18]; Safety population", "value": "10 (3.2) %"}, {"measurement": "Pleural effusion, subjects", "setting": "[18]; Safety population", "value": "4 (1.3) %"}, {"measurement": "Pneumonia, subjects", "setting": "[18]; Safety population", "value": "8 (2.5) %"}, {"measurement": "Any AE (TEAE), subjects", "setting": "[18]; [20]", "value": 53.7, "unit": "%"}, {"measurement": "TEAEs leading to premature discontinuation from study drug administration", "setting": "[19]", "value": 3.7, "unit": "%"}, {"measurement": "subjects with SAEs considered possibly or probably related to study drug", "setting": "[19]", "value": 2, "unit": "subjects"}, {"measurement": "Early withdrawal from study, reason Adverse Event", "setting": "[19]; MITTE population", "value": "5 (1.7) %"}, {"measurement": "Any AE (TEAE), subjects", "setting": "[19]; Safety population", "value": "119 (39.9) %"}, {"measurement": "Constipation, subjects", "setting": "[19]; Safety population", "value": "7 (2.3) %"}, {"measurement": "Diarrhea, subjects", "setting": "[19]; Safety population", "value": "14 (4.7) %"}, {"measurement": "Headache, subjects", "setting": "[19]; Safety population", "value": "10 (3.4) %"}, {"measurement": "Hypertension, subjects", "setting": "[19]; Safety population", "value": "6 (2.0) %"}, {"measurement": "Hypokalemia, subjects", "setting": "[19]; Safety population", "value": "4 (1.3) %"}, {"measurement": "Insomnia, subjects", "setting": "[19]; Safety population", "value": "9 (3.0) %"}, {"measurement": "Nausea, subjects", "setting": "[19]; Safety population", "value": "8 ( 2.7) %"}, {"measurement": "Phlebitis, subjects", "setting": "[19]; Safety population", "value": "7 (2.3) %"}, {"measurement": "Any AE (TEAE), subjects", "setting": "[19]; [20]", "value": 39.9, "unit": "%"}, {"measurement": "Diarrhea, subjects", "setting": "[19]; [20]", "value": 4.7, "unit": "%"}, {"measurement": "Headache, subjects", "setting": "[19]; [20]", "value": 3.4, "unit": "%"}]}
